Source: patent US10149833B2, “Small molecule, indirubin-3-oxime, for prevention and treatment of bone disease” (Industry-Academic Cooperation Foundation, Yonsei University, priority 2013, dated 2018)
Entries after “also recorded” stand apart in the source; their conditions may differ.

Legend:
tibia = tibia and growth plate length in mice dosed during a period of active growth; type: in vivo, C57BL/6 mice
Description: (§1) Two and six-week-old C57BL/6 mice, purchased from KOATECH (Gyeonggi-do, South Korea), were cared for in accordance with the guidelines established by the Institutional Animal Care and Use Committee at Yonsei University. The mice were divided into a control group and an experimental group, and were adapted to the environment for 1 week. Afterwards, they were treated every day for 2 weeks with a solution containing 20% dimethyl […] and 30% ethanol, or with indirubin-3′-oxime (0.05 mg/kg, 0.1 mg/kg, and 0.5 mg/kg), via intraperitoneal injection. Two weeks later, the tibiae were separated from mice, and then the muscles were separated and removed, after which the bones were fixed using 4% formaldehyde. The bones were treated for 2 weeks with a 10% EDTA solution for the decalcification process. The EDTA solution was changed every two days.
(§2) The tissue-cultured embryo tibiae and the animal-tested tibiae were dewaxed in xylene, and were rehydrated in a stepwise-diluted ethanol solution. The tibial tissue, which was separated from 15.5-embryonic-day-old ICR mice and then tissue-cultured, was stained using the safranin staining procedure. Staining was carried out for 25 min in a 0.02% fast green solution, and after brief dipping in acetic acid, was again carried out for 7 min in a 0.1% safranin solution. Meanwhile, the tibial tissue that was animal-tested and decalcified in EDTA was stained via the hematoxylin-eosin staining procedure. The tissue was stained in a hematoxylin solution for 10 min and then rinsed in running water for 10 min. After being briefly dipped in a solution comprising 0.1% hydrochloric acid and 70% ethanol, the tissue was stained for 30 sec in an eosin solution. The stained tibial tissues again underwent a dehydration process in the stepwise-diluted ethanol solution and were dewaxed in xylene.
(§3) The tibiae that underwent a dewaxing process were dehydrated. After paraffin blocks were formed, the tissues were sectioned at 4-μm thickness. The sectioned tissues were rehydrated, and then stained using immunofluorescence.
To understand whether indirubin-3′-oxime can actually produce an increase in bone length in mice, indirubin-3′-oxime was administered during a period of active growth, and its effect was examined (FIG. 4A). First of all, the effect on the activity of the growth plate in the middle of a period of growth was examined using the hematoxylin-eosin staining procedure (FIG. 4B).

β-catenin [1] = experiment: Western blot in RCS cells, β-catenin; type: cell-based, Rat; conditions: 24 hours treatment (FIG. 2A)
Description: (§4) Rat chondrosarcoma (RCS) cells were cultured in a Dulbecco's modified Eagle's medium (DMEM; Gibco, Grand Island, N.Y.), supplemented with 10% fetal bovine serum (FBS) and penicillin/streptomycin.
(§5) For Western blot analysis, cells were treated with indirubin-3′-oxime for 24 hours, cultured and reached to 70% confluency and then were harvested. After the harvested samples underwent cytolysis, the proteins were quantified, which was followed by electrophoresis using 10% or 12% SDA-PAGE gel. Afterwards, immunoblot was conducted using antibodies.
(§6) Indirubin-3′-oxime, a GSKβ inhibitor, is already known to increase the stability of β-catenin.

β-catenin [2] = experiment: ICC analysis (immunocytochemistry), β-catenin translocation into the nucleus; type: cell-based, Rat; conditions: RCS cells, 24 hours treatment (FIG. 2B)
Description: as §4
2.5×10^4 cells were adhered to a cover glass placed in a 12-well plate. Once securely attached, cells were treated with indirubin-3′-oxime for 24 hours, and then were rinsed with a phosphoric acid buffer solution. After adding 4% paraformaldehyde, cells were fixed at room temperature for 20 min. Then, proteins expressed in the cells were observed through cell membrane permeation, blocking, and immunofluorescent staining processes.
as §6

growth plate = growth plate activity in 7-week-old mice treated for 2 weeks; type: in vivo, C57BL/6 mice; conditions: treated 2 weeks
Description: as §1, §2
The tibiae that underwent a dewaxing process were dehydrated. After paraffin blocks were formed, the tissues were sectioned at 4-μm thickness. The sectioned tissues were rehydrated, and then stained using immunofluorescence. […]

GSKβ = experiment: Western blot in RCS cells, inactive GSKβ; type: cell-based, Rat; conditions: 24 hours treatment (FIG. 2A)
Description: as §4, §5, §6

ex vivo tibia = ex vivo tibia culture, tibia length and safranin staining; type: cell-based, C57BL/6 mice; conditions: 1 μM and 5 μM
Description: The tibiae were separated from 15.5-embryonic-day-old C57BL/6 mice, and were incubated in a 24-well tissue culture dish for 7 days. The medium used was prepared by adding 10% FBS, 1 mM beta-polyglycerol disodium phosphate, 50 ng/ml ascorbic acid, 0.3 mg/ml L-glutamine, 0.2% BSA, 100 U/ml penicillin, and 100 μg/ml streptomycin to a minimal essential medium (α-MEM, Gibco). Then, the tibiae were separated from the mice. After being treated in the medium for 24 hours, the tibia was treated with a drug. The medium and the drug were changed every two days. The tibia length was measured before and after treatment with the drug. The tibial tissue, on which drug treatment was completed, was rinsed with PBS and then fixed using 4% formaldehyde. The tissue-cultured embryo tibiae and the animal-tested tibiae were dewaxed in xylene, and were rehydrated in a stepwise-diluted ethanol solution. The tibial tissue, which was separated from 15.5-embryonic-day-old ICR mice and then tissue-cultured, was stained using the safranin staining procedure. Staining was carried out for 25 min in a 0.02% fast green solution, and after brief dipping in acetic acid, was again carried out for 7 min in a 0.1% safranin solution. Meanwhile, the tibial tissue that was animal-tested and decalcified in EDTA was stained via the hematoxylin-eosin staining procedure. […]

β-catenin [3] = experiment: IHC analysis on ex vivo tibia tissues; type: cell-based, mice; conditions: ex vivo tibiae treated with the drug (FIG. 2C)
Description: The tibiae were separated from 15.5-embryonic-day-old C57BL/6 mice, and were incubated in a 24-well tissue culture dish for 7 days. The medium used was prepared by adding 10% FBS, 1 mM beta-polyglycerol disodium phosphate, 50 ng/ml ascorbic acid, 0.3 mg/ml L-glutamine, 0.2% BSA, 100 U/ml penicillin, and 100 μg/ml streptomycin to a minimal essential medium (α-MEM, Gibco). Then, the tibiae were separated from the mice. After being treated in the medium for 24 hours, the tibia was treated with a drug. The medium and the drug were changed every two days. The tibia length was measured before and after treatment with the drug. The tibial tissue, on which drug treatment was completed, was rinsed with PBS and then fixed using 4% formaldehyde.
as §3, §6

[4] = growth plate at 9 weeks (FIG. 3C)

O=C1Nc2ccccc2/C1=C1/Nc2ccccc2/C1=N\O [indirubin-3′-oxime]
persistence of the bone length effect after growth has ceased (tibia; 13-week-old mice (FIGS. 4D, 4E)): lasts even in 13-week-old mice; also recorded: found to last even in 13-week-old mice
cell proliferation marker PCNA (tibia; mice dosed during period of active growth (FIG. 4B)): confirmed through PCNA
total bone length of the tibia (tibia; mice dosed during period of active growth (FIG. 4D)): increase in the total bone length of the tibia
length of each zone and total length of the growth plate (tibia; mice dosed during period of active growth, hematoxylin-eosin staining (FIGS. 4B, 4C)): increases not only the length of each zone but also the total length of the growth plate; also recorded: increase not only in the length of each zone but also in the total length of the growth plate
stability of β-catenin (Western blot) (β-catenin [1]): increased the stability of β-catenin
amount of β-catenin translocated into the nucleus (ICC) (β-catenin [2]): increase in the amount of β-catenin that was translocated into the nucleus
amount of Ki67, cell proliferation marker (IHC) (growth plate; [4]): increase in the amount of Ki67
stability of β-catenin in growth plate (IHC) (growth plate; [4]): increase in the stability of β-catenin
activity of the growth plate (hematoxylin-eosin staining) (growth plate; intraperitoneal, compared with control at 9 weeks (FIG. 3B)): inhibits growth plate senescence; also recorded: activity of the growth plate was still maintained
amount of inactive GSKβ (Western blot) (GSKβ): increasing the amount of inactive GSK3; also recorded: increasing the amount of inactive GSKβ
length of resting zone, proliferating zone and hypertrophic chondrocyte zone (safranin staining) (ex vivo tibia; 6 days, ex vivo tibia (FIGS. 1C, 1D)): increase in the total length (the resting zone, the proliferating zone, and the hypertrophic chondrocyte zone) that depended on the concentration
increase in the total length of the tibia (ex vivo tibia; tibiae treated for 6 days, ex vivo culture (FIGS. 1A, 1B)): dose-dependently induces longitudinal bone growth; also recorded: increase in the total length depended on the concentration change
amount of β-catenin in the hypertrophic chondrocyte zone (IHC) (β-catenin [3]): amount of β-catenin markedly increased in the hypertrophic chondrocyte zone
